The values that follow come from EP0314828A1, “4-Phenyl-1,2,3,4-tetrahydroisoquinolins as ulcer agents” (S O "PHARMACHIM", priority 1987, dated 1989).

Where two headings read alike, the source gives them in different places.

The subject of series [1] is Wasser-Immersions-Streßgeschwüren. Kind of series: water-immersion stress ulcer model in rats, oral administration. It is filed as in vivo, Ratten. Details: Ulkusindex: scale not given here. To be noted: for Prozent der Unterdrückung des Ulkusindexes / Ulkusindex / Prozentsatz der Unterdrückung des Ulkusindexes: rats. The text has this:
Die Versuche werden mit 280 weißen männlichen Ratten - Wistar-Rasse - mit einem Gewicht von 150 bis 200 g nach der Takagi K., Ishii Y, Arzneim. Forsch. Drug.Res. 17, 1544 (1967) Methode durchgeführt und entsprechend modifiziert. Achtzehn Stunden vor dem Versuch werden die Tiere nicht gefüttert bei freiem Zugang zu Wasserquellen. Die Verbindungen der allgemeinen Formel I werden oral verabreicht; anschließend werden die Ratten, zur Verhinderung jeglicher Bewegung, auf dem Rücken an einer Unterlage angebunden, untereinander isoliert und in bis auf 17 - 18° C temperiertes Wasser getaucht. Fünf Stunden später wurden die Tiere getötet, ihre Mägen herausgenommen und makroskopische destruktive Änderungen festgestellt.
Die Prüfmethode ist dieselbe wie in Beispiel 1.

The test system of series [2] is durch Indometacin hervorgerufenen Geschwüren. Kind of series: indometacin-induced ulcer model in rats. In kind it is in vivo, Ratten. The procedure:
Die Versuche werden mit 50 weißen, männlichen Ratten der Rasse Wistar mit einem Gewicht von 170 bis 200 g durchgeführt. Achtzehn Stunden vor dem Versuch werden die Tiere nicht gefüttert bei freiem Zugang zu Wasserquellen. Das Indometacin wird in einer Dosis von 35 mg/kg intraperitoneal eine halbe Stunde nach der peroralen Verabreichung der Verbindung Ia, eingeführt. In der fünften Stunde werden die Tiere getötet, die Mägen werden herausgenommen und es werden makroskopisch die destruktiven Veränderungen bestimmt. TABELLE 5

Series [3] deals with Geschwüren nach Shei. The experiment in a line: ulcer model according to Shei (ligature) in rats. The settings on record: Table 7, Kontrolle 16. It is filed as in vivo, Ratten. The source says: Die Versuche wurden mit weißen, männlichen Ratten, Rasse Wistar, mit einem Gewicht von 180 bis 270 g durchgeführt. Die Tiere werden 48 Stunden nicht gefüttert bei freiem Zugang zu Wasserquellen. 5 Stunden nach der Ligatur werden die Tiere getötet, die Mägen werden herausgenommen und die destruktiven Veränderungen makroskopisch untersucht. Als Vergleichspräparate wurden Cimetidin und Ranitidin angewandt (Tabelle 7). TABELLE 7

The subject of series [4] is durch Reserpin hervorgerufenen Geschwüren. The experiment in a line: reserpine-induced ulcer model in rats. It is filed as in vivo, Ratten. Details: Ulkusindex: scale not given here. To be noted: for Prozentsatz der Unterdrückung des Ulkusindexes / Ulkusindex: Table 6, rats; for Ulkusindex: Kontrolle 44,58. The procedure:
Die Versuche werden mit 180 weißen, männlichen Ratten - Rasse Wistar - mit einem Gewicht von 180 bis 270 g durchgeführt. Die Tiere werden 48 Stunden nicht gefüttert bei freiem Zugang zu Wasserquellen. Die Geschwüre wurden hervorgerufen durch die Injektion von 5 mg/kg Reserpin. Eine halbe Stunde vor Einführung des Reserpins erhalten die Tiere peroral verschiedene Dosen von Ia, die Kontrolltiere Wasser, 24 Stunden nach Einführung des Reserpins werden die Tiere mit Thiopental getötet. Die destruktiven Magenveränderungen werden makroskopisch bestimmt. Es wurden Vergleichsuntersuchungen mit Cimetidin und Ranitidin (Tabelle 6) durchgeführt.

A short description of series [5]: acute toxicity in mice. The settings on record: mouse, in vivo, Mäusen, read-out: LD₅₀.
For series [6], the system named is sauere Magensekret. The settings on record: in contrast to Histamin-H₂-Antagonisten; M. Bickel, Arzn.Forsch. 30 (1), 69, 1980; cited from earlier work.
The subject of series [7] is Streßgeschwüren. To be noted: experimental models of stress ulcers in mice; M. Bickel, Arzn.Forsch. 30 (1), 69, 1980; cited from earlier work.
[8] abbreviates: Table 1, peroral, Dosis 1 mg/kg, 5 h immersion.
Where [9] appears, read: Table 1, peroral, Dosis 1 mg/kg, 5 h immersion, Kontrolle 55,1.

Turning to `CCOC(=O)Nc1cccc2c1CN(C)CC2c1ccc(Cl)cc1` (racemic) [Ia, 2-Methyl-4-/4-Chlorphenyl/-8-Ethoxykarbonylamino-1,2,3,4-tetrahydroisochinolin], the “Prozent der Unterdrückung des Ulkusindexes” value in series [1] (setting [8]) is recorded as 92,1 Prozent; in series [1] (Table 3, oral, 0,100 mg/kg), 46 Prozent; in series [1] (Table 3, oral, 0,250 mg/kg) it was 57,3 Prozent; in series [1] (Table 3, oral, 0,500 mg/kg) it was 75,5 Prozent; in series [1] (Table 3, oral, 1,000 mg/kg), 85,00 Prozent. Further, the Ulkusindex in series [1] (setting [9]) is recorded as 4,33; in series [1] (Table 3, oral, 0,100 mg/kg, Kontrolle 76.6), 41,3; in series [1] (Table 3, oral, 0,250 mg/kg, Kontrolle 76.6) it was 32,7; in series [1] (Table 3, oral, 0,500 mg/kg, Kontrolle 76.6), 18,8; in series [1] (Table 3, oral, 1,000 mg/kg, Kontrolle 76.6) it was 11,3; in series [2] (Table 5, peroral, 0,050 mg/kg, Indometacin 35 mg/kg i.p., Kontrolle 19,5), 12,2. Further, the Ulkusindex is 10,4 in series [2] (Table 5, peroral, 0,250 mg/kg, Kontrolle 19,5); 9,3 in series [2] (Table 5, peroral, 0,500 mg/kg, Kontrolle 19,5); 4,2 in series [2] (Table 5, peroral, 1,100 mg/kg, Kontrolle 19,5); 12,2 in series [2] (peroral, minimal dose printed as 0,1 mg/kg, Kontrolltiere 19,5); 22 in series [3] (rats, 0,100 mg/kg, 5 h after ligature); 13 in series [3] (rats, 0,500 mg/kg). Further, the Ulkusindex in series [3] (rats, 1,5 mg/kg) was 7,13; in series [3] (rats, 1,000 mg/kg), 8,25; in series [4] (peroral, 1 mg/kg), 23,5; in series [4] (peroral, 2 mg/kg), 19,00; in series [4] (peroral, 3 mg/kg), 26,00; in series [4] (peroral, 0,250 mg/kg, Reserpin 5 mg/kg), 41,5. Also, the Ulkusindex is listed as 37 in series [4] (peroral, 0,500 mg/kg) and 21,33 in series [4] (peroral, 1,5 mg/kg). The “höhere Ulkusaktivität im Vergleich zu Ranitidin” value in series [1] (ratio of doses for maximal suppression: Ia 1 mg/kg vs Ranitidin 30 mg/kg (Tables 3 and 4)) stood at 30 fach. For the same compound, the “Prozentsatz der Unterdrückung des Ulkusindexes” value is given as 37 Prozent in series [2] (Table 5, peroral, 0,050 mg/kg); 40,6 Prozent in series [2] (Table 5, peroral, 0,250 mg/kg); 52 Prozent in series [2] (Table 5, peroral, 0,500 mg/kg); 78 Prozent in series [2] (Table 5, peroral, 1,100 mg/kg); 47,2 Prozent in series [4] (peroral, 1 mg/kg); 57,37 Prozent in series [4] (peroral, 2 mg/kg). For the same compound, the “Prozentsatz der Unterdrückung des Ulkusindexes” value in series [4] (peroral, 3 mg/kg) is on record as 41,00 Prozent; in series [4] (peroral, 0,250 mg/kg), 6,9 Prozent; in series [4] (peroral, 0,500 mg/kg), 17 Prozent; in series [4] (peroral, 1,5 mg/kg), 52,15 Prozent. For the same compound, in series [2] (peroral, minimal dose printed as 0,1 mg/kg), the Unterdrückungsprozentsatz is listed as 37. The “Ulkuseffekt gegenüber Vergleichspräparaten Cimetidin und Ranitidin” value in series [4] (maximal effect of Ia at 1,5 and 2 mg/kg vs Cimetidin 100 mg/kg and Ranitidin 30 mg/kg) is listed as “mehrfach höher”. The LD50 in series [5] (ip, intraperitoneal) worked out at 125 mg/kg; in series [5] (oral), 250 mg/kg.

With `CCOC(=O)Nc1cccc2c1CN(C)CC2c1ccc(Cl)cc1.O=C(O)/C=C\C(=O)O` (racemic) [Ib, /+/-2-Methyl-4-/4-chlorphenyl/8-ethoxycarbonylamino-1,2,3,4-tetrahydroisochinolin-saures Maleat], the Ulkusindex in series [1] (setting [9]) was 7,00. In series [1] (Table 1 data, 1 mg/kg peroral), the “Aktivität im Vergleich mit /+/(Ib)” value is on record as “vierfach niedrigere Aktivität”.

For `CCOC(=O)Nc1cccc2c1CN(C)CC2c1ccccc1` (racemic) [Ie, 2-Methyl-4-phenyl-8-ethoxycarbonylamino-1,2,3,4-tetrahydroisochinolin], in series [1] (setting [8]), the “Prozent der Unterdrückung des Ulkusindexes” value is given as 40,60 Prozent. For the same compound, in series [1] (setting [9]), the Ulkusindex is 32,70.

As to `CCOC(=O)Nc1cccc2c1CN(C)CC2c1ccccc1` (racemic) [If, /+/-2-Methyl-4-phenyl-8-ethoxycarbonylamino-1,2,3,4-tetrahydroisochinolin], the “Prozent der Unterdrückung des Ulkusindexes” value in series [1] (setting [8]) was 36,30 Prozent. The Ulkusindex in series [1] (setting [9]) is listed as 35,10.

Regarding `CN1Cc2c(N)cccc2C(c2ccccc2)C1.O=C(O)/C=C\C(=O)O` (stereo not drawn) [Alival, 2-Methyl-4-phenyl-8-amino-1,2,3,4-tetrahydroisochinolin-saueres-Maleat], in series [6], the “Inhibierung des saueren Magensekrets” value is on record as “nicht inhibiert”. In series [7], the Antigeschwüreffekt result is “einen Antigeschwüreffekt aufweist”.

`CNC(=NCCSCc1nc[nH]c1C)NC#N` [Cimetidin, N-Cyan-N-methyl-N-2/ 4-methyl-imidazolin/methylthio-ethylguanidinium, reference compound]: the Ulkusindex in series [3] (rats, 100 mg/kg) was 12,2; in series [4] (100 mg/kg), 27,62. Also, the “Prozentsatz der Unterdrückung des Ulkusindexes” value in series [4] (100 mg/kg) was 38,00 Prozent.

On to `CCOC(=O)Nc1cccc2c1CN(C)CC2c1ccc(Cl)cc1.O=C(O)/C=C\C(=O)O` (stereo not drawn) [Ic, /-/-2-Methyl-4-/4-chlorphenyl/8-ethoxycarbonylamino-1,2,3,4-tetrahydroisochinolin-saures Maleat], for which the “Prozent der Unterdrückung des Ulkusindexes” value in series [1] (setting [8]) was 28,20 Prozent. Moreover, in series [1] (setting [9]), the Ulkusindex is 39,58.

On to `CN1Cc2c(N)cccc2C(c2ccc(Cl)cc2)C1` (stereo not drawn) [Id, 2-Methyl-4-/4-chlorphenyl/-8-amino-1,2,3,4-tetrahydroisochinolin], for which the “Prozent der Unterdrückung des Ulkusindexes” value in series [1] (setting [8]) is reported as 86,40 Prozent. In series [1] (setting [9]), the Ulkusindex is given as 7,50.

For `CCOC(=O)Nc1cccc2c1CN(C)CC2c1ccccc1.O=C(O)/C=C\C(=O)O` (stereo not drawn) [Ig, /-/-2-Methyl-4-phenyl-8-ethoxycarbonylamino-1,2,3,4-tetrahydroisochinolin-saures Maleat], the “Prozent der Unterdrückung des Ulkusindexes” value in series [1] (setting [8]) is recorded as 48,00 Prozent. In series [1] (setting [9]), the Ulkusindex is on record as 28,60.

Turning to `CN1Cc2c(Cl)cccc2C(c2ccccc2)C1` (stereo not drawn) [Ih, 2-Methyl-4-phenyl-8-chlor-1,2,3,4-tetrahydroisochinolin], the “Prozent der Unterdrückung des Ulkusindexes” value in series [1] (setting [8]) was 36,60 Prozent. For the same compound, in series [1] (setting [9]), the Ulkusindex is reported as 34,90.

On to `CNC(=C[N+](=O)[O-])NCCSCc1ccc(CN(C)C)o1` [Ranitidin, N-/5-Dimethylamino-methyl/-2-furanil-methyl-thioethyl-/N-methyl-2-nitro/-1,1-ethan-diamin, reference compound], for which the “Prozentsatz der Unterdrückung des Ulkusindexes” value is given as around 27 Prozent in series [1] (Table 4, peroral, 0,5 mg/kg); 39,27 Prozent in series [1] (Table 4, peroral, 1 mg/kg); 35,89 Prozent in series [1] (Table 4, peroral, 3 mg/kg); 48,98 Prozent in series [1] (Table 4, peroral, 10 mg/kg); 61,62 Prozent in series [1] (Table 4, peroral, 30 mg/kg); 48,40 Prozent in series [4] (30 mg/kg). Further, the Ulkusindex in series [1] (Table 4, peroral, 0,5 mg/kg, Kontrolle 44,3) is on record as 32,3; in series [1] (Table 4, peroral, 1 mg/kg, Kontrolle 44,3), 26,9; in series [1] (Table 4, peroral, 3 mg/kg, Kontrolle 44,3), 28,4; in series [1] (Table 4, peroral, 10 mg/kg, Kontrolle 44,3), 22,6; in series [1] (Table 4, peroral, 30 mg/kg, Kontrolle 44,3), 17,0; in series [3] (rats, 30 mg/kg), 9. Further, the Ulkusindex in series [4] (30 mg/kg) was 23,00.
